Laboratory results as given in ChEMBL document CHEMBL1133320, “Inhibition of the ras-dependent mitogenic pathway by phosphopeptide prodrugs with antiproliferative properties” (Bioorg Med Chem Lett, 2000).
Numbered stars: 1 amine (or outer) side, 2 acyl side, 3 side chain; on linkers, the order of the positions; unused ones are H or OH. Square brackets hold non-standard residues; d marks the D form. Peptide text beside a SMILES is read from it. ξ: configuration not given here. X2 = CC(C)(C)C(=O)SCCOP(=O)(OCCSC(=O)C(C)(C)C)Oc1ccc(C[C@H](N[*:1])C(=O)[*:2])cc1; X1 = CC(=O)SCCOP(=O)(OCCSC(C)=O)Oc1ccc(C[C@H](N[*:1])C(=O)[*:2])cc1; F2Pmp = N[C@@H](Cc1ccc(C(F)(F)P(=O)(O)O)cc1)C(=O)O; Pmp = N[C@@H](Cc1ccc(CP(=O)(O)O)cc1)C(=O)O; pY = N[C@@H](Cc1ccc(OP(=O)(O)O)cc1)C(=O)O; ξP = O=C(O)C1CCCN1

Tests used:
[1] = target: T1, Growth factor receptor-bound protein 2 (Homo sapiens, UniProt P62993); assay: Dissociation constant of compound was determined from affinity of compound towards Growth factor receptor bound protein 2 measured by fluorescence; Non-detectable
T1 sequence (P62993 whole entry): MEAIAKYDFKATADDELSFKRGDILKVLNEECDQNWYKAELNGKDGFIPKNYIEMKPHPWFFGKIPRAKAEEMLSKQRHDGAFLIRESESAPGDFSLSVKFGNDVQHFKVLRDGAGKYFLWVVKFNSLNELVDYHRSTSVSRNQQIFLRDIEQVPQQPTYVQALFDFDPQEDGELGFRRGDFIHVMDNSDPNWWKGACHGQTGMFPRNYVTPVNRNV

[2] = target: T1, Growth factor receptor-bound protein 2; assay: Dissociation constant of compound was determined from affinity of compound towards Growth factor receptor bound protein 2 measured by fluorescence

Row | SMILES | Kd [1] | Kd [2]
1 | CC(=O)SCCOP(=O)(OCCSC(C)=O)Oc1ccc(C[C@H](NC(=O)[C@H](Cc2ccccc2)NC(=O)[C@@H]2CCCN2C(C)=O)C(=O)N[C@H](C(=O)N[C@@H](CC(N)=O)C(=O)N[C@H](C(=O)N2CCC[C@H]2C(N)=O)C(C)C)C(C)C)cc1 (Ac-PF[X1]VNVP-NH2) | Not Active | –
2 | CC(=O)N1CCC[C@H]1C(=O)N[C@@H](Cc1ccccc1)C(=O)N[C@@H](Cc1ccc(OP(=O)(OCCSC(=O)C(C)(C)C)OCCSC(=O)C(C)(C)C)cc1)C(=O)N[C@H](C(=O)N[C@@H](CC(N)=O)C(=O)N[C@H](C(=O)N1CCCC1C(N)=O)C(C)C)C(C)C (stereo partly specified) (Ac-PF[X2]VNV[ξP]-NH2) | Not Active | –
3 | CC(=O)N1CCC[C@H]1C(=O)N[C@@H](Cc1ccccc1)C(=O)N[C@@H](Cc1ccc(OP(=O)(O)O)cc1)C(=O)N[C@H](C(=O)N[C@@H](CC(N)=O)C(=O)N[C@H](C(=O)N1CCC[C@H]1C(N)=O)C(C)C)C(C)C (Ac-PF[pY]VNVP-NH2) | – | 30 nM
4 | CC(C)[C@H](NC(=O)[C@H](CC(N)=O)NC(=O)[C@@H](NC(=O)[C@H](Cc1ccc(C(F)(F)P(=O)(O)O)cc1)NC(=O)[C@H](CO)NC(=O)[C@@H]1CCCN1)C(C)C)C(=O)N[C@@H](CCC(N)=O)C(=O)N[C@@H](CC(N)=O)C(=O)O (H-PS[F2Pmp]VNVQN-OH) | – | 200 nM
5 | CC(C)[C@H](NC(=O)[C@H](CC(N)=O)NC(=O)[C@@H](NC(=O)[C@H](Cc1ccc(CP(=O)(O)O)cc1)NC(=O)[C@H](CO)NC(=O)[C@@H]1CCCN1)C(C)C)C(=O)N[C@@H](CCC(N)=O)C(=O)N[C@@H](CC(N)=O)C(=O)O (H-PS[Pmp]VNVQN-OH) | – | 260 nM
6 | CC(C)[C@H](NC(=O)[C@H](CC(N)=O)NC(=O)[C@@H](NC(=O)[C@H](Cc1ccc(OP(=O)(O)O)cc1)NC(=O)[C@H](CO)NC(=O)[C@@H]1CCCN1)C(C)C)C(=O)N[C@@H](CCC(N)=O)C(=O)N[C@@H](CC(N)=O)C(=O)O (H-PS[pY]VNVQN-OH) | – | 18 nM
